Peptide text beside a SMILES is read from it.
Legend:
[1] = test system: leukocytic pyrogen-induced fever; assay: in vivo rabbit pyresis assay (leukocytic pyrogen-induced fever); design: species or system New Zealand white rabbits; details: for decrease in fever, percent reduction of the area under the control fever curve: intraventricular (central), 30 min after pyrogen, over 1.5 hours; for fever reduction: 1.5 hour period after injection of leukocytic pyrogen
Procedure: Leukocytic pyrogen is a molecule capable of producing transient fever in mammals which is produced by incubating rabbit leukocytes with Salmonella typhosa endotoxin. More specifically, to produce leukocytic pyrogen, donor rabbits were first sacrificed by decapitation. Blood was collected in a heparinized pryrogen-free beaker. Heparinized 50-ml glass centrifuge tubes were filled 3/4 full with whole blood, saline was added to fill each tube, and the solution was gently mixed. The tubes were then centrifuged at low speed for 20 min. The buffy coat was drawn off and placed in pyrogen-free flasks. Lactate Ringer's solution equal in volume to one-half that of the red cell layer, was added along with Salmonella typhosa endotoxin (Difco, No. 0901) also in Ringer's solution (1 ug/ml), to the buffy coat. The mixture was incubated at 38~C in a shaking water bath for 4 hours. The solution was centrifuged, filtered (Nalgene, 0.20 microns), and the leukocytic pyrogen-containing filtrate was stored at 4~C. Samples of leukocytic pyrogen were heated to 70~C for 2 hours and injected intravenously to test for endotoxin contamination.
Injections were 50 ul in volume and were followed by a 20 ul saline flush. Intravenous injections were made via the marginal ear vein. Intravenous leukocytic pyrogen injections were 0.07 ml of a stock solution made up of a mixture of leukocytic pyrogen derived from 4 donors. When injected, leukocytic pyrogen stock solution was diluted with nonpyrgenic isotonic saline. Injections were made with commercial nonpyrogenic syringes. Glassware was washed with chromic acid, rinsed with deionized water and heated to 200~C for a minimum of 2 hours to insure that it was pyrogen free.
Adult New Zealand white rabbits were used for the development of an antipyretic assay. The rabbits were housed individually in a 21-23~Cenvironment with a 12 hour light/dark cycle; food and water were available ad libitum. […]. Rabbits were placed in a Kopf rabbit stereotaxic instrument and a stainless steel cannula (No. 201, David Kopf Instruments)was inserted into a lateral ventricle at a point 1.0 mm anterior to the bregma and 2.7 mm lateral to the midline. The cannula was lowered until cerebrospinal fluid appeared inside the well of the cannula. Stainless steel screws and dental acrylic were used to anchor the cannula to the caluarium. Benzathine penicillin G (Bicillin, Wyeth Laboratories) was given post-operatively (150,000 units intramuscularly).
(§1) Experimental rabbits that were to be used in the antipyresis study were restrained in conventional holders and a thermistor probe (Yellow Springs International, No. 701) was inserted about 100 mm into the rectum and taped to the tail. In certain experiments, another thermistor probe (Yellow Springs International, No. 709) was attached to the dorsal surface of the ear. Temperature recordings were made every 10 minutes via a MINC 11 online computer connected to a digital temperature recorder (Datalogger, United Systems Corp.) At least 1 hour was allowed after the probes were inserted before injections were made, and all experiments were separated by at least 48 hours. Experiments were run in an environmental chamber at 23~C.
The average thermal response, the mean change in temperature (~C) over the duration of the response measured in hours, was calculated for each response and the paired t-test was used for statistical analysis of the data. The time period over which the experimental anti-pyretic temperature response was determined was generally set by the duration of the control response for the individual animal. The control response begins with the first deviation from baseline temperature and continues until the temperature returns to baseline or to the point nearest the baseline within 5 hours. The mean change in temperature for each 10 minute intervals during this time period are summed and divided by the total number of 10 minute periods. […]

normal body temperature = assay: body temperature of afebrile rabbits; type: in vivo
Procedure: as §1
Injections of the tripeptide were given 30 minutes after the pyrogen, into the intraventricular cannula. […] Decreases in fever, calculated as percent reduction of the area under the control fever curve over the apparent duration of action of the peptide (1.5 hours), were 24%, 31%, and 48% for the 0.5, 1.0, and 2.0 milligram doses, respectively. Similarly, intravenous administration of 2, 20 and 200 milligrams of the tripeptide reduced fever 34, 27 and 67% , respectively, during the 1.5 hour period after injection of the leukocytic pyrogen. Control saline injections, centrally administered, caused no significant reduction in body temperature.

[2] = test system: carrageenan-induced swelling of rat paws; assay: carrageenan/rat paw edema assay; type: in vivo, male Sprague-Dawley rats; details: for overall reduction of carrageenan-induced swelling relative to hydrocortisone: approximately equal weights, intraperitoneal
Procedure: A second in vivo bioassay for anti-inflammatory activity was conducted in which the action of the tripeptide was compared to that of hydrocortisone. In this assay, the two agents were given at similar doses and tested for their independent ability to inhibit carrageenan-induced swelling of rats paws. This assay, the rat paw edema test, was conducted generally as it is typically performed in the art, for example, as described by Winter et al. (1962), Proc. Soc. Exp. Biol. Med., 111:544 or in U.S. Pat. No. 4,150,137.
Briefly, the assay was performed as follows. Each of twenty-four male Sprague-Dawley rats was assigned to one of four groups: tripeptide treatment and controls (matched according to body weight and initial paw volume), hydrocortisone treatment and matched controls. The volume of the right rear paw of the test and control animals was determined using standard procedures and a mercury displacement volumetric technique. An intraperitoneal injection of the tripeptide (Ac-Lys-Pro-Val-NH2, 100 mg/kg, N=6), of hydrocortisone (100 mg/kg, N=6), or saline (matched volume, N=12) was given to each rat. One hour later 0.5 ml of 1% lambda carrageenan in saline solution was injected into the right rear paw of the animals and the paw volume was again recorder (baseline measure). […] Thereafter paw volume was measured each hour for out hours. For comparison of the effects of the two treatments, paw volume of experimental animals measured at hourly intervals was expressed as a percentage of the volume change of their respective matched controls.

[3] = test system: histamine-mediated increase in capillary permeability; assay: skin-blueing test (Sparrow/Wilhelm assay), histamine-induced blue weals; type: in vivo, New Zealand white rabbits; details: for relative intensity of histamine-induced blue weals, experimental (E) vs control (C): scored 30 minutes after histamine
Excerpt: This model relies on the principal that localized, subcutaneous injections of histamine will result in a localized increase in capillary permeability. When the test animal has been pretreated with blue dye intravenously, the localized histamine injections will elicit blue-colored "weals" around the injection site. Thus, by preadministration of an effective anti-inflammatory agent, the blue color of the histamine-induced weals will be much less pronounced, with the amount of color reduction being dependent on the relative amount and/or potency of the anti-inflammatory agent used.
Non-moulting New Zealand white rabbits were used for the sparrow/Wilhelm assay. The skin of the rabbits back was closely clipped 1-2 days previous to the experiment, but not dipilated, and the rabbits were kept warm until tested. Various amounts of the protected tripeptide (diacetyl-L-lys-l-Pro-L-Val-NH2) were injected intravenously into an ear vein approximately 15 minutes prior to intravenous injection of blue dye. Control rabbits received sham injections. Fifteen minutes following injection of the agent or sham, the rabbits received approximately 30 mg/kg of Pontamine blue dye as a 2.5% solution in 0.45% saline, into an exposed vein.
Immediately following dye injections, histamine was injected intradermally in a 0.10 ml volume (1.25 mg histamine 0.1 ml volume) at several sites on each side of the spine. In all, one vertical row of six injections were made on each side of the spine. The relative intensity of the resultant blue weals were scored by an independent observer 30 minutes after histamine injection.

With `CC(C)[C@H](NC(=O)[C@@H]1CCCN1C(=O)[C@@H](N)CCCCN)C(=O)O` [L-Lys-L-Pro-L-val] (H-Lys-Pro-Val-OH) the “decrease in fever, percent reduction of the area under the control fever curve” value (“decrease in fever, percent reduction” for short) ([1]; 0.5 milligram dose) was 24%, the “decrease in fever, percent reduction” value ([1]; 1.0 milligram dose) was 31% and the “decrease in fever, percent reduction” value ([1]; 2.0 milligram dose) was 48%. For the same compound, the “duration of (antipyretic) action” value ([1]; central administration) was 1.5 h, the fever reduction ([1]; intravenous 2 milligrams) was 34% and the fever reduction ([1]; intravenous 20 milligrams) was 27%. The fever reduction ([1]; intravenous 200 milligrams) was 67% and the “reduction in body temperature of afebrile rabbits” value (normal body temperature; injections of 200 milligrams) was “no reduction in body temperature”.

For `[Cl][Cu][Cl]` [copper ions, cupric chloride], the “effect of copper ions alone on normal temperature” value (normal body temperature; doses used to enhance the protected peptide) was “no effect on normal temperature”.

With `C[C@]12CCC(=O)C=C1CC[C@@H]1[C@@H]2[C@@H](O)C[C@@]2(C)[C@H]1CC[C@]2(O)C(=O)CO` [hydrocortisone, reference compound] the “inhibition of paw swelling in the first hour” value ([2]; 100 mg/kg intraperitoneal, first hour after carrageenan, p<0.05 Mann-Whitney vs tripeptide) was “markedly inhibited swelling”.

In the case of “diacetyl-L-Lysyl-L-Prolyl-L-Valyl-NH2 [protected tripeptide]”, the “reduction of fever induced by intravenous leukocytic pyrogen” value ([1]; 0.5 mg, central administration) is reported as “more than 50%”, the “antipyretic potency relative to the unprotected tripeptide” value ([1]; central administration) is reported as “at least four” and the “duration of (antipyretic) action” value ([1]; central administration) is reported as “at least four”. The “activity relative to the unprotected species on a weight basis” value ([1]; rabbit pyresis assay, summary statement) was “approximately twice”, the “inhibition of paw edema compared with hydrocortisone” value ([2]; 100 mg/kg intraperitoneal each, 1 h before carrageenan, hours after the first hour, p>0.20) was “no significant difference” and the “overall reduction of carrageenan-induced swelling relative to hydrocortisone” value ([2]; listed as diacetyl-Lys-Pro-Val-NH2) was “roughly equivalent”. The “overall reduction of carrageenan-induced swelling relative to hydrocortisone” value ([2]; listed as protected Lys-Pro-Val tripeptide) was “commensurate with hydrocortisone”, the “relative intensity of histamine-induced blue weals, experimental (E) vs control (C)” value (“relative intensity” for short) ([3]; 0.625 ug/kg body weight intravenously) was “No difference” and the “relative intensity” value ([3]; 1.25 ug/kg body weight intravenously) was “E lighter than C”. For the same compound, the “relative intensity” value ([3]; 5 ug/kg body weight intravenously) was “E lighter than C”, the “relative intensity” value ([3]; 10 ug/kg body weight intravenously) was “E lighter than C” and the “lowest intravenous dosage reducing histamine-mediated increase in capillary permeability” value ([3]; intravenous) was 1.25 ug/kg body weight. For the same compound, the “lowest dosage eliciting a demonstrable reduction in histamine-mediated vascular permeability to vital dyes” value ([3]; rabbit, in vivo) was “about 1 microgram/kilogram”.
